# In BindingDB's records for doi:10.7270/Q25T3HZB (Burnham Center For Chemical Genomics, 2010):
# Target: Kappa-type opioid receptor (Homo sapiens, UniProt P41145)
# Assay: KOR antagonists by imaging, SAR follow-up, image-based (AID 2348)
# Sequence of Kappa-type opioid receptor (P41145 whole entry): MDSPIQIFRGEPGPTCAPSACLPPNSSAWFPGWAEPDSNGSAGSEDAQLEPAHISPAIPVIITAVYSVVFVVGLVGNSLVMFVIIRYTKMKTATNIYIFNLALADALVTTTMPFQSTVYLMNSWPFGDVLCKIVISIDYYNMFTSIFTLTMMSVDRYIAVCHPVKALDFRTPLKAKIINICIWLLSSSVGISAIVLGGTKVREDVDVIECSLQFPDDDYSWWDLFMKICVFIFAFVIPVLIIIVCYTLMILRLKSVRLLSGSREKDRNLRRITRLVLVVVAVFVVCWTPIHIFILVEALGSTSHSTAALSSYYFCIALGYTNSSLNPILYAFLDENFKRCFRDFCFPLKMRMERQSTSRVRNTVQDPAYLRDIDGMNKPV
row,IC50 [µM],Structure (SMILES)
1,3.62,"CCC(N=Nc1ccnc2cc(Cl)ccc12)c1ccc(O)cc1 (configuration not stated) [4-[1-[2-(7-chloroquinolin-4-yl)hydrazinyl]propylidene]cyclohexa-2,5-dien-1-one]"
2,24.8,"Oc1ccc(CN=Nc2ccnc3cc(Cl)ccc23)cc1O [(4Z)-4-[[2-(7-chloroquinolin-4-yl)hydrazinyl]methylidene]-2-hydroxycyclohexa-2,5-dien-1-one]"
